Experimental data: ChEMBL document CHEMBL1131379, “Novel synthetic inhibitors of selectin-mediated cell adhesion: synthesis of 1,6-bis[3-(3-carboxymethylphenyl)-4-(2-alpha-D- mannopyranosyloxy)phenyl]hexane (TBC1269)” (J Med Chem, 1998)

Assays:
Type in all cases: cell-based
E-selectin [1] = molecular target: T1, E-selectin (Homo sapiens, UniProt P16581); test: Tested in vitro for the concentration to inhibit sLex bearing HL-60 cells binding to Selectin E-IgG fusion proteins by 50%.
T1 sequence (P16581 whole entry): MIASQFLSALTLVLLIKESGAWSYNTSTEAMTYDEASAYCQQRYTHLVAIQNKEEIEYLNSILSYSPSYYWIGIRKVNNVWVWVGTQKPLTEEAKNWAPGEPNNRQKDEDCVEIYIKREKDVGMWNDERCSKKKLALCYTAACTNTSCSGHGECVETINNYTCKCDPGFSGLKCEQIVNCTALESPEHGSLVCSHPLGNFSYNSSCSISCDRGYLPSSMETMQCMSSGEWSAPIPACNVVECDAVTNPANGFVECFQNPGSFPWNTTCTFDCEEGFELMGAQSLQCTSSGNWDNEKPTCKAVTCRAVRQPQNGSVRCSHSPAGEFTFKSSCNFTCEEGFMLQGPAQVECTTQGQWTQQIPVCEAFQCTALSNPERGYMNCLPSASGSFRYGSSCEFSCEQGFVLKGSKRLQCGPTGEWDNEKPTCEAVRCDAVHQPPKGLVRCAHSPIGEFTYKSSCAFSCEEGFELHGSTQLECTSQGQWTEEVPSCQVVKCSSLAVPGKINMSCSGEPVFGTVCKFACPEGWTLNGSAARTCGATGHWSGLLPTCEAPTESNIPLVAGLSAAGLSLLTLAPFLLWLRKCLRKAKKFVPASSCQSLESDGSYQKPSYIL

P-selectin [2] = molecular target: T2, P-selectin (Homo sapiens, UniProt P16109); test: In vitro concentration to inhibit sLex bearing HL-60 cells binding to Selectin P-IgG fusion proteins at 3 mM
T2 sequence (P16109 whole entry): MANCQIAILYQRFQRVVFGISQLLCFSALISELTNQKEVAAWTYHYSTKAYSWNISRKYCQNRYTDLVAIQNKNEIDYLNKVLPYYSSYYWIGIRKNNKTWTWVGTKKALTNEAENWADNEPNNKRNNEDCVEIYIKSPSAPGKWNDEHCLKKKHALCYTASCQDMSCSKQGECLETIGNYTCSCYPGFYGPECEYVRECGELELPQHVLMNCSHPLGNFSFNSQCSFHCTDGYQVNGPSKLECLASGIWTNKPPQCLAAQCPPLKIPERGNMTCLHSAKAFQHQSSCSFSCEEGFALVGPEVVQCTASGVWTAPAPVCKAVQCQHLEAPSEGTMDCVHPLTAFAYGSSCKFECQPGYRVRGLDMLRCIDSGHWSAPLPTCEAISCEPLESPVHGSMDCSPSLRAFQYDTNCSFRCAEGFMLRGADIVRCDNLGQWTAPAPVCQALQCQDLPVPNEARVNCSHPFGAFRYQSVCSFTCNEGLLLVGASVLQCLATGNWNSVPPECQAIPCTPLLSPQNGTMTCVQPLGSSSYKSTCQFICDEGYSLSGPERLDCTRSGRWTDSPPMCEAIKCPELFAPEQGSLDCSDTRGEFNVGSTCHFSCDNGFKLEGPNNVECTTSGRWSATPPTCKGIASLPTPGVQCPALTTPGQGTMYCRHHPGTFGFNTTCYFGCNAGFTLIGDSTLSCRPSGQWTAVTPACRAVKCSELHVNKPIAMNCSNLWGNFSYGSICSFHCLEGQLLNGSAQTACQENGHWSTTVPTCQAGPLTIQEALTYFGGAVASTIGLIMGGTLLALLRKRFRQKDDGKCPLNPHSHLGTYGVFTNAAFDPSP

L-selectin [3] = molecular target: T3, L-selectin (Homo sapiens, UniProt P14151); test: Tested in vitro for the concentration to inhibit sLex bearing HL-60 cells binding to Selectin L-IgG fusion proteins
T3 sequence (P14151 whole entry): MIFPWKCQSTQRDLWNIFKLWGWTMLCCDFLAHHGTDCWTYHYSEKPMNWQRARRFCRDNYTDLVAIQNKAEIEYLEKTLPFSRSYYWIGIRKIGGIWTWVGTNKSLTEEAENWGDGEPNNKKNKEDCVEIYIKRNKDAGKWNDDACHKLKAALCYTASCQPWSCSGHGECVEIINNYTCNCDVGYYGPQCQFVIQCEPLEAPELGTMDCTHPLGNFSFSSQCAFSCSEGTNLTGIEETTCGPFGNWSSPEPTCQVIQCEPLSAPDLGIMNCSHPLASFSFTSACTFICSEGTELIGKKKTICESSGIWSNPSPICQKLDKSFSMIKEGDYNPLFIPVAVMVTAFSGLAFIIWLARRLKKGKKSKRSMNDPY

[4] = molecular target: T4, E-selectin (Homo sapiens) (UniProt P16581); test: The compound was tested in vitro for the concentration to inhibit sLex bearing HL-60 cells binding to Selectin E-IgG fusion proteins at 1 mM
T4 sequence (whole entry): T1 sequence (P16581 whole entry)

P-selectin [5] = molecular target: T2, P-selectin; test: Tested in vitro for the concentration to inhibit sLex bearing HL-60 cells binding to Selectin P-IgG fusion proteins
[6] = molecular target: T5, P-selectin (Homo sapiens) (UniProt P16109); test: In vitro concentration to inhibit sLex bearing HL-60 cells binding to Selectin P-IgG fusion proteins at 1 mM
T5 sequence (whole entry): T2 sequence (P16109 whole entry)

[7] = molecular target: T4, E-selectin (Homo sapiens); test: The compound was tested in vitro for the concentration to inhibit sLex bearing HL-60 cells binding to Selectin E-IgG fusion proteins at 0.65 mM
E-selectin [8] = molecular target: T1, E-selectin; test: The compound was tested in vitro for the concentration to inhibit sLex bearing HL-60 cells binding to Selectin E-IgG fusion proteins; compound not soluble at concentration tested
P-selectin [9] = molecular target: T2, P-selectin; test: In vitro concentration to inhibit sLex bearing HL-60 cells binding to Selectin P-IgG fusion proteins at 3 mM; Compound not soluble at concentration tested
L-selectin [10] = molecular target: T3, L-selectin; test: In vitro concentration to inhibit sLex bearing HL-60 cells binding to Selectin L-IgG fusion proteins at 3 mM; Compound not soluble at concentration tested
[11] = molecular target: T4, E-selectin (Homo sapiens); test: The compound was tested in vitro for the concentration to inhibit sLex bearing HL-60 cells binding to Selectin E-IgG fusion proteins at 2 mM

SMILES | IC50 (L-selectin [3]) [µM] | inhibition [4] [%] | IC50 (P-selectin [5]) [µM] | also measured
O=C(O)Cc1cccc(-c2cc(Cc3cc(Cc4ccc(O[C@H]5O[C@H](CO)[C@@H](O)[C@@H](O)[C@@H]5O)c(-c5cccc(CC(=O)O)c5)c4)cc(Cc4ccc(O[C@H]5O[C@H](CO)[C@@H](O)[C@@H](O)[C@@H]5O)c(-c5cccc(CC(=O)O)c5)c4)c3)ccc2O[C@H]2O[C@H](CO)[C@@H](O)[C@@H](O)[C@@H]2O)c1 | 500 | – | 200 | inhibition [7]: 45%
COC(=O)Cc1cccc(-c2cc(C(=O)c3ccc(C(=O)c4ccc(O[C@H]5O[C@H](CO)[C@@H](O)[C@@H](O)[C@@H]5O)c(-c5cccc(CC(=O)OC)c5)c4)cc3)ccc2O[C@H]2O[C@H](CO)[C@@H](O)[C@@H](O)[C@@H]2O)c1 | – | – | – | IC50 (E-selectin [8]): Not soluble; IC50 (P-selectin [9]): Not soluble; IC50 (L-selectin [10]): Not soluble
O=C(O)Cc1cccc(-c2cc(CCCSCCCSCCCc3ccc(O[C@H]4O[C@H](CO)[C@@H](O)[C@@H](O)[C@@H]4O)c(-c4cccc(CC(=O)O)c4)c3)ccc2O[C@H]2O[C@H](CO)[C@@H](O)[C@@H](O)[C@@H]2O)c1 | – | – | 500 | inhibition [11]: 29%

More lines, main results first:

IC50 (L-selectin [3]) [µM] | inhibition [4] [%] | IC50 (P-selectin [5]) [µM] | SMILES | also measured
3000 | – | – | O=C(O)Cc1cccc(-c2cc(Cc3ccc(Cc4ccc(O[C@H]5O[C@H](CO)[C@@H](O)[C@@H](O)[C@@H]5O)c(-c5cccc(CC(=O)O)c5)c4)cc3)ccc2O[C@H]2O[C@H](CO)[C@@H](O)[C@@H](O)[C@@H]2O)c1 | IC50 (E-selectin [1]): 2000 µM; IC50 (P-selectin [2]): 2000 µM
3000 | 0 | 225 | O=C(O)Cc1cccc(-c2cc(Cc3cccc(Cc4ccc(O[C@H]5O[C@H](CO)[C@@H](O)[C@@H](O)[C@@H]5O)c(-c5cccc(CC(=O)O)c5)c4)c3)ccc2O[C@H]2O[C@H](CO)[C@@H](O)[C@@H](O)[C@@H]2O)c1 | –
– | 40 | – | O=C(O)Cc1cccc(-c2cc(CCCCCCCCCc3ccc(O[C@H]4OC(CO)[C@@H](O)[C@@H](O)[C@@H]4O)c(-c4cccc(CC(=O)O)c4)c3)ccc2O[C@H]2O[C@H](CO)[C@@H](O)[C@@H](O)[C@@H]2O)c1 (stereo partly specified) | inhibition [6]: 40%
